The subject of this assay is P388 leukemia ip, CD2F1 mice, survival T/C. Description: NCI In Vivo Anticancer Drug Screen. Data for tumor model P388 Leukemia (intraperitoneal) in CD2F1 (CDF1) mice. The following applies: endpoint: median survival time, higher = longer survival. In outline:
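Mice carrying the transplanted tumor received test compound or vehicle. Survival was recorded in each group, and the value is the treated-group measurement divided by that of the vehicle-treated control group.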

Setting [1] is: dose: 50.0 mg/kg/injection, schedule: Q01DX005 (ip), vehicle: Klucel (hydroxypropylcellulose) (HPC).
Where [2] appears, read: dose: 100.0 mg/kg/injection, schedule: Q01DX005 (ip), vehicle: Klucel (hydroxypropylcellulose) (HPC).
The mark [3] stands for this setting: dose: 200.0 mg/kg/injection, schedule: Q01DX005 (ip), vehicle: Klucel (hydroxypropylcellulose) (HPC).
Setting [4] is: dose: 25.0 mg/kg/injection, schedule: Q01DX009 (ip), vehicle: saline.
[5] abbreviates: dose: 100.0 mg/kg/injection, schedule: Q01DX005 (ip), vehicle: saline with Tween-80.
[6] abbreviates: dose: 50.0 mg/kg/injection, schedule: Q01DX009 (ip), vehicle: saline.
[7] abbreviates: dose: 100.0 mg/kg/injection, schedule: Q01DX009 (ip), vehicle: saline.
The mark [8] stands for this setting: dose: 200.0 mg/kg/injection, schedule: Q01DX009 (ip), vehicle: saline.
The mark [9] stands for this setting: dose: 100.0 mg/kg/injection, schedule: Q01DX009 (ip), vehicle: Klucel (hydroxypropylcellulose) (HPC).
The mark [10] stands for this setting: dose: 200.0 mg/kg/injection, schedule: Q01DX009 (ip), vehicle: Klucel (hydroxypropylcellulose) (HPC).
[11] abbreviates: dose: 50.0 mg/kg/injection, schedule: Q01DX009 (ip), vehicle: saline with Tween-80.
[12] abbreviates: dose: 100.0 mg/kg/injection, schedule: Q01DX009 (ip), vehicle: saline with Tween-80.
Where [13] appears, read: dose: 200.0 mg/kg/injection, schedule: Q01DX009 (ip), vehicle: saline with Tween-80.
The mark [14] stands for this setting: dose: 50.0 mg/kg/injection, schedule: Q01DX009 (ip), vehicle: Klucel (hydroxypropylcellulose) (HPC).

Values joined by “and” are separate entries in the source; they are usually repeats but may differ in a detail not shown here. Equal entries are not always repeated. Inconclusive results and toxic doses are left out. Peptide text beside a SMILES is read from it.

Drawing on PubChem BioAssay AID330 (DTP/NCI, 2004), this text covers T/C for 25 compounds.

With `CCCCCCCCN=Cc1c(O)c(O)c(C(C)C)c2cc(C)c(-c3c(C)cc4c(C(C)C)c(O)c(O)c(C=NCCCCCCCC)c4c3O)c(O)c12`, the T/C reads like this: (dose: 25.0 mg/kg/injection, schedule: Q01DX005 (ip), vehicle: Klucel (hydroxypropylcellulose) (HPC)) 95 % of control; under setting [1], 98 % of control; under setting [2], 98 % of control; under setting [3], 93 % of control.

Regarding `COc1cc(N(CCCl)CCCl)c(OC)cc1C=Nc1ccccc1C(=O)O`, the T/C runs as follows: (dose: 3.12 mg/kg/injection, schedule: Q01DX009 (ip), vehicle: suspension in saline) 114 % of control; under setting [4], 182 % of control.

On to `CC(=O)NC(Cc1ccccc1)C(=O)NC(Cc1ccccc1)C(=O)O` (stereo not drawn) (Ac-Phe-Phe-OH; configuration not given here), for which the T/C is 107 % of control (dose: 50.0 mg/kg/injection, schedule: Q01DX005 (ip), vehicle: saline with Tween-80); 103 % of control under setting [5]; 94 % of control (dose: 200.0 mg/kg/injection, schedule: Q01DX005 (ip), vehicle: saline with Tween-80).

Regarding `C/C1=N/N=C(N)\N=C(\C)CC1`, the T/C was 90 % of control under setting [6], 102 % of control under setting [7] and 101 % of control under setting [8].

Take `O=[N+]([O-])c1ccc(N/N=C/c2ccnc3ccccc23)cc1`: the T/C runs as follows: under setting [9], 95 % of control; under setting [10], 86 % of control; (dose: 400.0 mg/kg/injection, schedule: Q01DX009 (ip), vehicle: Klucel (hydroxypropylcellulose) (HPC)) 95 % of control.

In the case of `CCCCCCCCCCCC[N+](C)(CCS(=O)(=O)[O-])Cc1ccccc1` (centres undefined), the T/C under setting [5] was 108 % of control.

As to `CCC1C[N+]2(C)CCc3cc(OC)c(OC)cc3C2CC1=O` (centres undefined), the T/C reads like this: (dose: 12.5 mg/kg/injection, schedule: Q01DX009 (ip), vehicle: saline) 94 % of control; under setting [4], 93 % of control; under setting [11], 106 % of control; under setting [6], 100 % of control.

In the case of `CCCCCCC1C/C(=C/N(C)C)C(=O)O1` (centres undefined), the T/C is, setting by setting: (dose: 60.0 mg/kg/injection, schedule: Q01DX005 (ip), vehicle: Klucel (hydroxypropylcellulose) (HPC)) 92 % of control; (dose: 120.0 mg/kg/injection, schedule: Q01DX005 (ip), vehicle: Klucel (hydroxypropylcellulose) (HPC)) 104 % of control; (dose: 240.0 mg/kg/injection, schedule: Q01DX005 (ip), vehicle: Klucel (hydroxypropylcellulose) (HPC)) 92 % of control.

On to `O=C(O)CCN(Cl)Cl`, for which the T/C runs as follows: (dose: 60.0 mg/kg/injection, schedule: Q01DX005 (ip), vehicle: saline) 98 % of control; (dose: 120.0 mg/kg/injection, schedule: Q01DX005 (ip), vehicle: saline) 104 % of control; (dose: 240.0 mg/kg/injection, schedule: Q01DX005 (ip), vehicle: saline) 95 % of control.

Turning to `O=C1NCC(c2ccccc2)N1` (centres undefined), the T/C by setting is: under setting [11], 119 % of control; under setting [12], 100 % of control; under setting [13], 106 % of control.

Consider `CCOc1ccc(NC(=O)CC(C)O)cc1` (centres undefined), for which the T/C by setting is: under setting [11], 94 % of control; under setting [12], 93 % of control; under setting [13], 96 % of control.

Consider `CC(C)(C)c1cc(C(=O)O)c(S)c(C(=O)O)c1`, for which the T/C under setting [14] is 104 % of control and 109 % of control; the T/C under setting [9] was 102 % of control and 100 % of control; the T/C under setting [10] is 93 % of control.

As to `CC(C)(c1ccccc1)c1ccc(O)cc1`, the T/C (dose: 25.0 mg/kg/injection, schedule: Q01DX009 (ip), vehicle: saline with Tween-80) was 100 % of control; the T/C under setting [11] was 100 % of control; the T/C under setting [12] was 100 % of control; the T/C (dose: 100.0 mg/kg/injection, schedule: Q04DX003 (ip), vehicle: saline with Tween-80) was 90 % of control.

With `S=C(Nc1ccc(N=Nc2ccccc2)cc1)SCc1ccccc1`, the T/C (dose: 100.0 mg/kg/injection, schedule: Q04DX003 (ip), vehicle: saline) is 98 % of control; the T/C (dose: 200.0 mg/kg/injection, schedule: Q04DX003 (ip), vehicle: saline) was 92 % of control; the T/C (dose: 400.0 mg/kg/injection, schedule: Q04DX003 (ip), vehicle: saline) is 91 % of control.

For `CC(=O)C1=CN(Cc2ccccc2)C=C(C)C1`, the T/C is, setting by setting: under setting [6], 99 % of control; under setting [7], 96 % of control; under setting [8], 96 % of control.

For `[Br][Pd][Br].[NH-]C1CCCC2CCC[N-]C12` (centres undefined), the T/C is 93 % of control (dose: 12.5 mg/kg/injection, schedule: Q04DX002 (ip), vehicle: saline with Tween-80); 93 % of control (dose: 25.0 mg/kg/injection, schedule: Q04DX002 (ip), vehicle: saline with Tween-80); 98 % of control (dose: 50.0 mg/kg/injection, schedule: Q04DX002 (ip), vehicle: saline with Tween-80).

For `COc1ccc(OC)c2c1nc(CBr)n2C`, the T/C is, setting by setting: (dose: 16.25 mg/kg/injection, schedule: Q01DX005 (ip), vehicle: DMSO) 104 % of control; (dose: 32.5 mg/kg/injection, schedule: Q01DX005 (ip), vehicle: DMSO) 93 % of control.

As for `Cc1cc(=O)n2c(nc3ccccc32)s1`, the T/C by setting is: under setting [14], 109 % of control; under setting [9], 96 % of control; under setting [10], 109 % of control.

For the compound `NC(CCCNc1ccc(O)cc1)C(=O)O` (centres undefined), the T/C was 100 % of control (dose: 50.0 mg/kg/injection, schedule: Q01DX005 (ip), vehicle: saline); 99 % of control and 104 % of control (dose: 100.0 mg/kg/injection, schedule: Q01DX005 (ip), vehicle: saline); 98 % of control (dose: 200.0 mg/kg/injection, schedule: Q01DX005 (ip), vehicle: saline).

Take `CCCN(CCC)CC(C)O` (centres undefined): the T/C runs as follows: under setting [4], 95 % of control; under setting [6], 100 % of control; under setting [7], 95 % of control.

With `O=C1C=CC(=O)c2c(O)c3c(c(O)c21)C[C@H](O)[C@H](O)[C@@H]3O`, the T/C (dose: 1.56 mg/kg/injection, schedule: Q04DX003 (ip), vehicle: water) was 98 % of control; the T/C (dose: 3.13 mg/kg/injection, schedule: Q04DX003 (ip), vehicle: water) is 92 % of control; the T/C (dose: 6.25 mg/kg/injection, schedule: Q04DX003 (ip), vehicle: water) is 102 % of control.

As to `O=C(O)Cc1ccc2c(c1)sc1nc(-c3ccc(Br)cc3)cn12`, the T/C is 101 % of control (dose: 100.0 mg/kg/injection, schedule: Q04DX003 (ip), vehicle: Klucel (hydroxypropylcellulose) (HPC)); 103 % of control (dose: 200.0 mg/kg/injection, schedule: Q04DX003 (ip), vehicle: Klucel (hydroxypropylcellulose) (HPC)); 103 % of control (dose: 400.0 mg/kg/injection, schedule: Q04DX003 (ip), vehicle: Klucel (hydroxypropylcellulose) (HPC)).

`CCCC(NC(=O)OCc1ccccc1)C(=O)NC(Cc1c[nH]c2ccccc12)C(=O)O` (centres undefined): the T/C under setting [1] is 109 % of control, the T/C under setting [2] is 108 % of control and the T/C under setting [3] is 94 % of control.

Turning to `CCCCCCCCOP(=O)(N1CC1C)N1CC1C` (centres undefined), the T/C is, setting by setting: (dose: 12.5 mg/kg/injection, schedule: Q01DX009 (ip), vehicle: saline with Tween-80) 113 % of control; (dose: 25.0 mg/kg/injection, schedule: Q04DX003 (ip), vehicle: saline) 109 % of control; under setting [11], 158 % of control and 168 % of control; (dose: 50.0 mg/kg/injection, schedule: Q04DX003 (ip), vehicle: saline) 113 % of control.

Turning to `CC1=CS(=O)c2ccccc2N1C` (centres undefined), the T/C (dose: 50.0 mg/kg/injection, schedule: Q04DX002 (ip), vehicle: Klucel (hydroxypropylcellulose) (HPC)) was 97 % of control; the T/C (dose: 100.0 mg/kg/injection, schedule: Q04DX002 (ip), vehicle: Klucel (hydroxypropylcellulose) (HPC)) was 100 % of control; the T/C (dose: 100.0 mg/kg/injection, schedule: Q04DX002 (ip), vehicle: suspension in saline) is 109 % of control; the T/C (dose: 200.0 mg/kg/injection, schedule: Q04DX002 (ip), vehicle: Klucel (hydroxypropylcellulose) (HPC)) is 101 % of control; the T/C (dose: 200.0 mg/kg/injection, schedule: Q04DX002 (ip), vehicle: suspension in saline) was 124 % of control; the T/C (dose: 400.0 mg/kg/injection, schedule: Q04DX002 (ip), vehicle: Klucel (hydroxypropylcellulose) (HPC)) was 108 % of control. Further, the T/C (dose: 400.0 mg/kg/injection, schedule: Q04DX002 (ip), vehicle: suspension in saline) was 117 % of control.
